pIC50: −log10 of the molar value.
How the values were obtained:
[1] = target: CYP6M2 (Anopheles gambiae, UniProt Q7Q449)
[2] = target: T1, CYP6P3 (Anopheles gambiae, UniProt Q8T632)
T1 sequence (Q8T632 1-509): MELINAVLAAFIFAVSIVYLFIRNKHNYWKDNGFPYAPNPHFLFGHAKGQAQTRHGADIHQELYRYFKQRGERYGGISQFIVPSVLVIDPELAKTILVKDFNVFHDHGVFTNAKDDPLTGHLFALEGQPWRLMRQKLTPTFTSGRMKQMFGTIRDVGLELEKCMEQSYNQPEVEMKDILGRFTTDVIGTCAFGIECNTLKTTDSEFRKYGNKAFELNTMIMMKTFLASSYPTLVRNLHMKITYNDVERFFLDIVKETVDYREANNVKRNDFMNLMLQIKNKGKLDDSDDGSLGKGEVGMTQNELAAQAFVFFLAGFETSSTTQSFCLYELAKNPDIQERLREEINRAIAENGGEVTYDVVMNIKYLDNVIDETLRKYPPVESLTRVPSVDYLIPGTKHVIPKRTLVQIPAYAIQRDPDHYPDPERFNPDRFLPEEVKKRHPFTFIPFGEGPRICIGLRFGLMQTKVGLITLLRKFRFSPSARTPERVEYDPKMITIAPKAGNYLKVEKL
T1 sequence (Q86QH5 1-679 partner): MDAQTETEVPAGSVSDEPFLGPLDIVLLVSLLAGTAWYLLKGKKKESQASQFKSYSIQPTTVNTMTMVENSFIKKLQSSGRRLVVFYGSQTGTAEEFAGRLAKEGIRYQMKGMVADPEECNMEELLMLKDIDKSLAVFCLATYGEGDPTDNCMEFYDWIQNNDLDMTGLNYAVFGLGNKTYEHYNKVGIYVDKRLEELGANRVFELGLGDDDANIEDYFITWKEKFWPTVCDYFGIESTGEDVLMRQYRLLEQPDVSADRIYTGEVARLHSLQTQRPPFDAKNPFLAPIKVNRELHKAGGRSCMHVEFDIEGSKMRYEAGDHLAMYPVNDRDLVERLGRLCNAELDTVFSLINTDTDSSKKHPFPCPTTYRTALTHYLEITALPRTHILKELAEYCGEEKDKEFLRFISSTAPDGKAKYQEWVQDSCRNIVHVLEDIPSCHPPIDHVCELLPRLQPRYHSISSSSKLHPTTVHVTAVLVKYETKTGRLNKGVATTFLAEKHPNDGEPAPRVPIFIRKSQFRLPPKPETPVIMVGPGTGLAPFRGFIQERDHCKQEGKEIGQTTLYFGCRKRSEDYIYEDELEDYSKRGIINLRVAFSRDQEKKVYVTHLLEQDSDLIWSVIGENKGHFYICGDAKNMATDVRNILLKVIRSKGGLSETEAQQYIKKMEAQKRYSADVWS
T1 sequence (Q86QH4 1-128 partner): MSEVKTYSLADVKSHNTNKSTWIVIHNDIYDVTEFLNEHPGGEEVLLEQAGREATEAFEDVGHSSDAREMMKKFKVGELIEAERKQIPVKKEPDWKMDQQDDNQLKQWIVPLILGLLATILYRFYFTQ

[3] = target: T2, CYP6P4 (Anopheles gambiae, UniProt Q7QCY8)
T2 sequence (Q7QCY8 1-506): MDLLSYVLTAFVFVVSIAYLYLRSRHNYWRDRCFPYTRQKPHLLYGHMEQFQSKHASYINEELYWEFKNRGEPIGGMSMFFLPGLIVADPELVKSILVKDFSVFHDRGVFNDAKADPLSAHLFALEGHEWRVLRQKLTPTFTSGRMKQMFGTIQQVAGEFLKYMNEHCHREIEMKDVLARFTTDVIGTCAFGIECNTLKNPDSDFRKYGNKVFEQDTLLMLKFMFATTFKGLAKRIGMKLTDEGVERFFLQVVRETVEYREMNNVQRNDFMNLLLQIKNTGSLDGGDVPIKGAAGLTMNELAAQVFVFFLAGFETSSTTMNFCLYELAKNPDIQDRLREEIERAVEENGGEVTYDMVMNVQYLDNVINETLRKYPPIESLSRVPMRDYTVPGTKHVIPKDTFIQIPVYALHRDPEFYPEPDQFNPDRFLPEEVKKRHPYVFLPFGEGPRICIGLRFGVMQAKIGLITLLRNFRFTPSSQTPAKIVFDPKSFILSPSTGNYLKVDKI
T2 sequence (Q86QH5 1-679 partner): T1 sequence (Q86QH5 1-679 partner)
T2 sequence (Q86QH4 1-128 partner): T1 sequence (Q86QH4 1-128 partner)

[4] = target: T3, CYP9J5 (Anopheles gambiae, UniProt Q5TN57)
T3 sequence (Q5TN57 1-545): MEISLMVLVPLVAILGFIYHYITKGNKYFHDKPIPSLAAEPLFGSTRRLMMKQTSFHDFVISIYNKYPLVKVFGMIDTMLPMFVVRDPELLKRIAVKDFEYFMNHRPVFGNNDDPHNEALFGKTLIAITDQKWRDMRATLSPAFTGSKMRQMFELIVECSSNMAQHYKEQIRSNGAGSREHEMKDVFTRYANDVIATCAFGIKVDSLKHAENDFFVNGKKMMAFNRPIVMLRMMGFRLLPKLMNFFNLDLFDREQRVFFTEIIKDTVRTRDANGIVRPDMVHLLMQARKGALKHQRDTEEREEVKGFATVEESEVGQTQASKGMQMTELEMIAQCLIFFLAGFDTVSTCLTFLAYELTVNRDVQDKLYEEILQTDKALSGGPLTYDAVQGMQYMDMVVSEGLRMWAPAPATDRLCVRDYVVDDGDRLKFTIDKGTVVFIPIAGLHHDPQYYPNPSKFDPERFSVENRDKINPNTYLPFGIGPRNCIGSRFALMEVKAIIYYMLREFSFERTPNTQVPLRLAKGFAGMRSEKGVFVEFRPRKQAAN
T3 sequence (Q86QH5 1-679 partner): T1 sequence (Q86QH5 1-679 partner)
T3 sequence (Q86QH4 1-128 partner): T1 sequence (Q86QH4 1-128 partner)

[5] = target: T4, CYP6Z2 (Anopheles gambiae, UniProt A8I285)
T4 sequence (A8I285 1-492): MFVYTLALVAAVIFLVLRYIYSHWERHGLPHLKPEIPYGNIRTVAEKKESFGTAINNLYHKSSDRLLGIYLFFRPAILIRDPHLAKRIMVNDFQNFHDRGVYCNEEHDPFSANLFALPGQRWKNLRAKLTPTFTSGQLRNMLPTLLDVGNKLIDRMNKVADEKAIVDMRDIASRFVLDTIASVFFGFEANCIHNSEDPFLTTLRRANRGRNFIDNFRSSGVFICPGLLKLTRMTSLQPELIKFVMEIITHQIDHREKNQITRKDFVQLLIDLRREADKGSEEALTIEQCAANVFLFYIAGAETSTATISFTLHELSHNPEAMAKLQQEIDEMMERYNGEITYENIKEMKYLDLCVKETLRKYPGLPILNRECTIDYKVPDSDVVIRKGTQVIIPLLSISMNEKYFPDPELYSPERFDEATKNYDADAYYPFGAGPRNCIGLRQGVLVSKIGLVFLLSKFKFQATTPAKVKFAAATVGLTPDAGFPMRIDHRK
T4 sequence (Q86QH5 1-679 partner): T1 sequence (Q86QH5 1-679 partner)
T4 sequence (Q86QH4 1-128 partner): T1 sequence (Q86QH4 1-128 partner)

[6] = target: T4, CYP6Z2; assay: biochemical
[7] = category of inhibition of DEF metabolism

Sequence of CYP6M2 (Q7Q449 1-499, one chain of several): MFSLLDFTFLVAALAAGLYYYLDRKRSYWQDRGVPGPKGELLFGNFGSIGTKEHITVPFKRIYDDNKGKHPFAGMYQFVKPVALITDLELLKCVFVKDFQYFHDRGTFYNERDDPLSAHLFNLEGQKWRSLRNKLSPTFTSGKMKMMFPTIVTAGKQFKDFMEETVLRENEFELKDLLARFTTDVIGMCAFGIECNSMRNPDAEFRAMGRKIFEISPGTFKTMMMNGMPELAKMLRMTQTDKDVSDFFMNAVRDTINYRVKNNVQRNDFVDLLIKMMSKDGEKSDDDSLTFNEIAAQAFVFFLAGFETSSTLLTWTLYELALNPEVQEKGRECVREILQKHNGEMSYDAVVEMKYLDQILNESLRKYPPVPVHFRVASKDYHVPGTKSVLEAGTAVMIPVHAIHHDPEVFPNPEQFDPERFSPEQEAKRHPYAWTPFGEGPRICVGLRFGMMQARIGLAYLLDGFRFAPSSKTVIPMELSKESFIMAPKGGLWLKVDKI

Compound	% PPF depletion + PBO ([1]; Anopheles gambiae, pH 7.4)	% PPF depletion −PBO ([1]; Anopheles gambiae, pH 7.4)	% PPF depletion + PBO ([2]; Anopheles gambiae, pH 7.4)	% PPF depletion + PBO ([3]; Anopheles gambiae, pH 7.4)	% PPF depletion −PBO ([3]; Anopheles gambiae, pH 7.4)	% PPF depletion + PBO ([4]; Anopheles gambiae, pH 7.4)	% PPF depletion + PBO ([5]; Anopheles gambiae, pH 7.4)	% PPF depletion −PBO ([5]; Anopheles gambiae, pH 7.4)	pIC50 ([6]; IC50 of DEF metabolism)	pIC50 [6, 7]	Inhibition ratio (%): reduction of PPF depletion caused by PBO [1]	Inhibition ratio (%): reduction of PPF depletion caused by PBO [2]	Inhibition ratio (%): reduction of PPF depletion caused by PBO [3]	Inhibition ratio (%): reduction of PPF depletion caused by PBO [4]	Inhibition ratio (%): reduction of PPF depletion caused by PBO [5]
CC(COc1ccc(Oc2ccccc2)cc1)Oc1ccccn1 (centres unmarked) [PPF, pyriproxyfen]	1.44 ± 0.67%	30.93 ± 4.65%	8.68 ± 1.74%	4.44 ± 1.99%	81.63 ± 0.63%	0.08 ± 0.15%	8.41 ± 1.58%	66.26 ± 3.02%	5.65	5.00 to 6.00					
CCCCOCCOCCOCc1cc2c(cc1CCC)OCO2 [PBO, piperonyl butoxide]											95.3%	91.3%	94.6%	99.6%	87.3%
CC1(C)C(C=C(Cl)Cl)C1C(=O)OCc1cccc(Oc2ccccc2)c1 (mixture of isomers) [Permethrin, 3-phenoxybenzyl (1R,S)-cis,trans-3-(2,2-dichlorovinyl)-2,2-dimethylcyclopropanecarboxylate]									4.86	< 5.00					

From publication PMC6399515 (Insect Biochemistry and Molecular Biology, 2016)
